Data published in article PMC4841536, “Characterization of the Anti-HCV Activities of the New Cyclophilin Inhibitor STG-175” (PLoS ONE, 2016).

Assays:
Human recombinant CypD = molecular target: T1, Human recombinant CypD (Homo sapiens, UniProt P30405); assay: α-chymotrypsin-coupled PPIase assay, CypD isomerase activity; type: biochemical; conditions: IC50, neutralization of the isomerase activity of CypD, 5°C, 10 concentrations 0.05–1000 nM
T1 construct: purchased Atgen
Method: Inhibition of CypA and CypD isomerase activities were quantified using a α-chymotrypsin-coupled assay adapted to a 96-well plate format. Human recombinant CypA or CypD (Atgen) was dissolved to 10 nM in PPIases buffer (50 mM Hepes, 100 mM NaCl, 1 mg/ml bovine serum albumin, 1 mg/ml α-chymotrypsin; pH 8). Succinyl-AAPF-pNA peptide substrate (Sigma) was dissolved to 3.2 mM in LiCl/trifluoroethanol. Each CypI was prepared at 10 concentrations in DMSO, then diluted into CypA/D PPIase buffer to 0.05–1000 nM. Incubations were performed at 5°C. Ninety five μL of reaction mix was added to 5 μL peptide in 96-wells and OD405 nm measured at 6-sec intervals for 6 min using a Biotek Synergy H4 plate reader. Data were fitted with Graphpad Prism 6.0 to acquire first-order rate constants, which were calculated by subtracting the rate constant from uncatalyzed reactions (no CypA/D). The catalytic rate constants were plotted as a function of inhibitor concentration to obtain IC50s.
The inhibition of the isomerase activities of CypA and CypD were measured with 10 increasing concentrations of STG-175 to quantify IC50 values.
Fig 1 Anti-PPIase and immunosuppressive activities of STG-175. A. Structures of cyclophilin inhibitors. Inhibition of CypA (B) and CypD (C) isomerase activities were assessed using the α-chymotrypsin-coupled assay. Each test compound was prepared at 10 concentrations (0.05–1000 nM). All solutions were equilibrated, and reactions conducted at 5°C. Reactions were initiated by mixing 95 μL reaction mix with 5 μL of the peptide to be cleaved and measuring OD405 nm at 6-sec intervals for 6 min. […] Enzyme catalyzed rate constants were calculated by subtracting the rate constant from uncatalyzed reactions (no CypA/D), and catalytic rate constants plotted as a function of inhibitor concentration to obtain IC50s. […] D. IL-2 promoter activation upon T-cell stimulation was determined using an engineered Jurkat T-cell line, which expresses betagalactosidase. […] The Y-axis values are expressed as percentage of activity. Data expressed as EC50s are representative of two independent experiments.

[1] = test system: NS5Ai-resistant L31V NS5A Con1 GT1b replicon; assay: Electroporated Con1 RNA replication in Huh7.5.1 cells (RT-qPCR), L31V NS5A; type: cell-based; conditions: Hepatitis C virus, Huh-7.5.1, 192 h, read-out: EC50 L31V NS5A
From the text: The GT1b subgenomic firefly luciferase reporter replicon pFK-I389/NS3–3 was provided by R. Bartenschlager. The GT1B subgenomic NS3, NS5A and NS5B mutants were created via homologous recombination using the In-Fusion HD Cloning kit (Clontech) as we described previously. […] The in vitro transcription of wild-type and mutant Con1 RNA was accomplished using the T7 MEGAscript kit (Ambion) by following the manufacturer’s instructions. In vitro-transcribed RNAs were introduced into Huh7.5.1 cells by electroporation. Trypsinized cells were washed twice and resuspended in phosphate-buffered saline (PBS) (calcium-free and magnesium-free) at 1x 10^7 cells per ml. Ten micrograms of RNA for each mutant was mixed with 0.4 mL of cells in a 4-mm cuvette, and a Bio-Rad Gene Pulser system was used to deliver a single pulse at 0.27 kV, 100 ohms, and 960 μF. […] RNA transfection efficiency and HCV subgenomic replication were assessed by reverse transcription-quantitative PCR (RT-qPCR) and presented as genome equivalents (GE) per microgram of total RNA as described previously. We measured by RT-qPCR the replication of wild-type, STG-175-, NS5Ai-, NS3i- and NS5Bi-resistant mutants in the presence of increasing concentrations of SGT-175, daclatasvir, telaprevir, boceprevir and sofosbuvir over a period of 8 days.
Fig 5 Cross-resistance analyses. […] Data are expressed as log of GE/μg of total RNA. […]

[2] = test system: subgenomic Con1 (GT1b) replicon in Huh-7 cells; conditions: 0.25, 0.5 or 1 μM, 7 passages with drug then 3 passages without; HCV RNA by RT-qPCR
Method: Cells were grown until they reached 90% confluence, trypsinized and re-seeded at the same cell concentration in a new 10-cm dish with the same drug concentration. […] Then drugs were removed to allow viral replication rebound to occur. At each passage, sample of cells were collected, RNA extracted according to the manufacturer's instructions and analyzed by RT-PCR for HCV RNA levels.
Fig 3 Replicon clearance, replication rebound and resistance analyses. […] Then drugs were removed to allow viral replication rebound to occur. At each passage, samples of cells were collected, RNA extracted and analyzed by RT-PCR for HCV RNA levels. B. Emergence of resistance: Con1 replicon Huh-7 cells were passaged 22 times in the absence or presence of STG-175 or selected DAAs. At each passage, sample of cells were collected, RNA extracted and analyzed by RT-PCR for HCV RNA levels. C. […] Data are expressed as number of HCV RNA copies per cell. […] Data are expressed as mean of relative light units and calculated EC50s are presented. […] E. Degree of resistance of D320E and Y321N Con1 variants: Left panel. Wild-type (WT), D320E and D320/Y321N NS5A Con1 RNA were electroporated into Huh7.5.1 cells and replication monitored over 8 days by quantifying the levels of intracellular HCV RNA. Right panel. Same as just above except that increasing concentrations of STG-175 were added at the time of the electroporation. […]

T1 sequence (P30405 30-207): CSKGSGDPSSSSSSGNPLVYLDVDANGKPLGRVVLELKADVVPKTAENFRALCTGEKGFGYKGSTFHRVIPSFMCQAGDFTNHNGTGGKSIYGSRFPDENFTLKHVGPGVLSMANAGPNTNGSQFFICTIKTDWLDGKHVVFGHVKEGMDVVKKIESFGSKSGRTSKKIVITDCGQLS

In the case of CC=CCC(C)C(O)C1C(=O)NC(CC)C(=O)N(C)C(CSCCCCO)C(=O)N(C)C(CC(C)(C)O)C(=O)NC(C(C)C)C(=O)N(C)C(CC(C)C)C(=O)NC(C)C(=O)NC(C)C(=O)N(C)C(CC(C)C)C(=O)N(C)C(CC(C)C)C(=O)N(C)C(C(C)C)C(=O)N1C (stereo not drawn) [STG-175], the IC50 (Human recombinant CypD) is reported as 1.3 nM, the EC50 [1] is reported as 15.1 nM and the “viral replication rebound after drug removal” value [2] is reported as “no replication rebound was observed”.
